Test results taken from ChEMBL document CHEMBL1131898, “4-Pyridin-5-yl-2-(3,4,5-trimethoxyphenylamino)pyrimidines: potent and selective inhibitors of ZAP 70” (Bioorg Med Chem Lett, 1999).

How the values were obtained:
[1] = target: T1, Tyrosine-protein kinase ZAP-70 (Homo sapiens, UniProt P43403); experiment: Inhibition of Zeta-chain (TCR) associated protein kinase 70 kDa phosphorylation of polyGly-Tyr.
T1 sequence (P43403 whole entry): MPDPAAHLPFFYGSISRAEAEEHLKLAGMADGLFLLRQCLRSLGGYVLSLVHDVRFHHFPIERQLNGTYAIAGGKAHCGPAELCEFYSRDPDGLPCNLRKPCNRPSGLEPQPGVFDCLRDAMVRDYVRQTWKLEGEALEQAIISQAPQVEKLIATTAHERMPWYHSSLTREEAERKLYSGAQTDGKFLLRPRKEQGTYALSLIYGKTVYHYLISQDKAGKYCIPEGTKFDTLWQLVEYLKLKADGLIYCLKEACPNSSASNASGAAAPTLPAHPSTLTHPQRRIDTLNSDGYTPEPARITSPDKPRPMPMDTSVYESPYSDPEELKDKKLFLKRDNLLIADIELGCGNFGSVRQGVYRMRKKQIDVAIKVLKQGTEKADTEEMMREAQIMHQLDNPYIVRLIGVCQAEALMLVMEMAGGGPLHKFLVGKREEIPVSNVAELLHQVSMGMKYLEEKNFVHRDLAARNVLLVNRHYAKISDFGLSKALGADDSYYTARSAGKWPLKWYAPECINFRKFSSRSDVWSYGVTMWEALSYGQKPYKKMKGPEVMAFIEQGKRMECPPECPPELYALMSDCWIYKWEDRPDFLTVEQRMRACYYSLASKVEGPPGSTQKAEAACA

[2] = target: Tyrosine-protein kinase CSK (Homo sapiens, UniProt P41240); experiment: Inhibition of csk tyrosine kinase
[3] = target: Tyrosine-protein kinase Lck (Homo sapiens, UniProt P06239); experiment: Inhibition of p56 lck tyrosine kinase
Sequence of Tyrosine-protein kinase Lck (P06239 whole entry): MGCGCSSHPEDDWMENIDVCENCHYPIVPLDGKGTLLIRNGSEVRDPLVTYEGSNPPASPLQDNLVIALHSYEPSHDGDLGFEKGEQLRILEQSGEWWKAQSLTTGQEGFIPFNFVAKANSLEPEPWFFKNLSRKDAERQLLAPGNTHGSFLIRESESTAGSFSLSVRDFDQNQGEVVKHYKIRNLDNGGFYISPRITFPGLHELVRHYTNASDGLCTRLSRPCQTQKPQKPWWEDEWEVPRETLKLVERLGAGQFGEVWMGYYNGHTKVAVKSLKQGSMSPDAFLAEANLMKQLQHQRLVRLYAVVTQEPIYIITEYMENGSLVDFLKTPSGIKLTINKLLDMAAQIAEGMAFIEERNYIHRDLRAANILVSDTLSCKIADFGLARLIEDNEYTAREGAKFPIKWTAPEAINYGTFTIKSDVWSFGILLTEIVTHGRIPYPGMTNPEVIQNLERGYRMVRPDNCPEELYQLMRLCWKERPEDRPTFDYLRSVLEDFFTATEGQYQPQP

Protein kinase C (PKC) = experiment: Inhibition of protein kinase C (PKC); type: protein assay
[4] = target: Epidermal growth factor receptor (Homo sapiens, UniProt P00533); experiment: Inhibition of Epidermal growth factor receptor (EGFr)
Sequence of Epidermal growth factor receptor (P00533 whole entry): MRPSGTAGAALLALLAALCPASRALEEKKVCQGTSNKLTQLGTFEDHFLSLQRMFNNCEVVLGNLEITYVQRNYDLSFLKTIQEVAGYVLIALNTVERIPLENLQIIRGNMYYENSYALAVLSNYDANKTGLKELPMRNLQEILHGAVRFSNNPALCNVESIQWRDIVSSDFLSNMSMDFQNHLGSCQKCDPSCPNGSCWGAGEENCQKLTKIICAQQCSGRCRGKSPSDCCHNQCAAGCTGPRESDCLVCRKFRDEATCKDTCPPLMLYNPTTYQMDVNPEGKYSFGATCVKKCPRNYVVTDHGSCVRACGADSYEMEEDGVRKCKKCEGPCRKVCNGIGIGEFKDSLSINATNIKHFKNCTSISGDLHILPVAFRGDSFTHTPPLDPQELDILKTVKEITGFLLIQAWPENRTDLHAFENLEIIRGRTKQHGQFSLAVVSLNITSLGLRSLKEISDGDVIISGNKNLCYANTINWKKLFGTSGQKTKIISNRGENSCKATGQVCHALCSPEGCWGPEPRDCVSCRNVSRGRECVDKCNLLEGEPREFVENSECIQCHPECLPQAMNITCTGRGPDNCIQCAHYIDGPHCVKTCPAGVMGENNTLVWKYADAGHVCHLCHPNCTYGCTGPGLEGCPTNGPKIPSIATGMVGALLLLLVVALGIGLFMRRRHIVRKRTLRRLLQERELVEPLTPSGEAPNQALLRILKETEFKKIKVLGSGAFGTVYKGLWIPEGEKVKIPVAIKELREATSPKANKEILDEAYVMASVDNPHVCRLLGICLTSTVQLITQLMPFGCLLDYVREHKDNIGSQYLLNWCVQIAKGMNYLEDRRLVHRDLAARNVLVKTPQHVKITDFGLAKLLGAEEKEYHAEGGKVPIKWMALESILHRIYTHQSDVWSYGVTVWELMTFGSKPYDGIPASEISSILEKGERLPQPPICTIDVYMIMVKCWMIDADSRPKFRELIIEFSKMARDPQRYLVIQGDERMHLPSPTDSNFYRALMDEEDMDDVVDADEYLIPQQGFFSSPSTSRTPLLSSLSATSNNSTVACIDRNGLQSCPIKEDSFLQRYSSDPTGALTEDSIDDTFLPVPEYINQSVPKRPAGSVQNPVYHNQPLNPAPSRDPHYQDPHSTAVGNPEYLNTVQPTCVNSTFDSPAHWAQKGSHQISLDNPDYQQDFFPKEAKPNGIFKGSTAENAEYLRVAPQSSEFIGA

Row | IC50 [1] [µM] | IC50 [2] [µM] | IC50 [3] [µM] | IC50 (Protein kinase C (PKC)) [µM] | IC50 [4] [µM] | SMILES
1 | 0.054 | > 10 | 3.3 | 1.3 | – | COc1cc(Nc2nccc(-c3ccc(N4CCNCC4)nc3)n2)cc(OC)c1OC
2 | 1.9 | – | 1.1 | 1.4 | – | COc1cc(Nc2nccc(-c3cccnc3)n2)cc(OC)c1OC
3 | 0.008 | – | 2.2 | 2.874 | – | CC[C@H]1CN(c2ccc(-c3ccnc(Nc4cc(OC)c(OC)c(OC)c4)n3)cn2)CCN1
4 | – | > 10 | 1.2 | 0.15 | 5.1 | COc1cc(Nc2nccc(-c3ccc(NCCN)nc3)n2)cc(OC)c1OC
